Laboratory results as given in the NIST ThermoML archive (doi:10.1021/je100089s).

How the values were obtained:
[1] = Liquid, Vibrating tube method
[2] = xn = mol fraction of the nth substance listed; conditions: Liquid, Vibrating tube method, x1 = 1

OCCO [1,2-ethanediol]
mass density [kg/m3], [1]
Conditions | 101 kPa | 10000 kPa | 25000 kPa | 50000 kPa | 75000 kPa | 100000 kPa
278.15 K | 1123.77 | 1127.65 | 1133.2 | 1141.71 | 1149.55 | 1157.24
288.15 K | – | 1120.87 | 1126.51 | 1135.26 | 1143.65 | 1151.55
298.15 K | – | 1113.97 | 1119.78 | 1128.78 | 1137.41 | 1145.51
308.15 K | – | 1107.05 | 1112.97 | 1122.28 | 1131.41 | 1139.57
323.15 K | 1092.12 | – | – | 1112.75 | 1122.55 | 1130.66

C[S+](C)[O-] [dimethyl sulfoxide]
mass density [kg/m3], [1]
Conditions | 101 kPa | 10000 kPa | 25000 kPa | 50000 kPa | 75000 kPa | 100000 kPa
298.15 K | 1095.36 | 1101.16 | 1109.51 | 1122.86 | – | –
308.15 K | 1085.36 | 1091.6 | 1100.65 | 1115.13 | 1128.21 | 1136.76
323.15 K | 1070.28 | 1076.9 | 1086.87 | 1102.44 | 1115.12 | 1123.25

C[S+](C)[O-] [dimethyl sulfoxide] + OCCO
mass density [kg/m3], [2]
Conditions | 101 kPa | 10000 kPa | 25000 kPa | 50000 kPa | 75000 kPa | 100000 kPa
298.15 K | 1095.36 | 1101.16 | 1109.51 | 1122.86 | – | –
308.15 K | 1085.36 | 1091.6 | 1100.65 | 1115.13 | 1128.21 | 1136.76
323.15 K | 1070.28 | 1076.9 | 1086.87 | 1102.44 | 1115.12 | 1123.25
